{
  "source": "patent US20250144050A1",
  "about": "“AMINOTHIOL-CONJUGATES, COMPOSITIONS, AND METHODS OF USE THEREOF” (THE BURLINGTON HC RESEARCH GROUP, INC., priority 2021, published 2025)",
  "format_in_all_cases": "cell-based",
  "key": {"NCI-H460 NSCLC cells": {"system": "NCI-H460 NSCLC cells", "method": "(§2) Trypan Blue exclusion was applied as a complementary confirmation probe for cell death.\n(§3) Statistical comparisons of differences in individual dose-response metrics between individual/paired drug treatments and various cell lines were conducted using the Student's t-test, with P-values <0.05 considered significant.\n(§4) Relative cell growth inhibition values for differing levels each drug alone and in combination were input into SynergyFinder to generated dose-response curves for each drug alone, to produce a dose-response matrix, to visualize the distribution of areas of differing degrees of synergism in a 2-dimension heatmap and 3-dimension volcano plot, and to calculate average and maximum synergy scores in selected human cancer cell lines. […] Synergy scores <10 means that the interaction between two drugs was likely to be antagonistic; scores from −10 to 10 means the interaction between two drugs was likely to be additive; and scores >10 means the interaction between two drugs was likely to be synergistic."}, "Vero cells": {"system": "Vero cells", "assay": "Dose-response metrics in immortalized, non-tumorigenic cells", "protocol": "(§1) To determine potential cytostatic or cytocidal effects of BRG prodrugs in immortalized, non-tumorigenic cells, Vero, HEK-293t, LP9, and HPM3 cells were exposed to 4SP65 while only Vero cells also were treated with 1LP65. […] Comparisons across other dose-response metrics could not be made because such levels of effects were not induced in NHMECs exposed to 4SP65. […] Since cytostatic and cytolytic effects at the TGI and LC50/99 levels were induced in Vero cells exposed to 1LP65 but not in NHMECs, there is a significant difference in the effects of 1LP65 in Vero cells compared to NHMECs, but p values based upon t-test evaluations cannot be defined due to lack of numerical data."}, "[1]": {"system": "TOV21G ovarian cancer cells", "method": "as §2, §3, §4"}, "[2]": {"system": "PPM-Mill malignant mesothelioma cells", "method": "as §2, §3, §4"}, "[3]": {"system": "normal human mammary epithelial cells (NHMECs)", "assay": "Growth of NHMEC strains after 48-hour exposure", "conditions": "for average effect per unit dose (% growth÷exposure concentration) / average effect per unit dose: NHMECs; for growth relative to control cells: 48-hour; for cell growth as % of control cell values: highest drug level 500 μM", "description": "Normal human mammary epithelial cell (NHMEC) strains used to assess potential cytotoxicity of 4SP65/1LP65 were established from reduction mammoplasty tissue from a healthy donor (#M99005 or ‘Strain-1’) (Keshava et al., “Induction of CYP1A1 and CYP1B1 and Formation of Carcinogen-DNA Adducts in Normal Human Mammary Epithelial Cells Treated with Benzo[a]pyrene,” Cancer Lett. 221 (2): 213-24 (2005), which is hereby incorporated by reference in its entirety) or purchased from ATCC (Manassas, VA, USA; batch #70043304 or ‘Strain-2’) or Cell Applications (San Diego, CA, USA; lot #1669 or ‘Strain-3’). Human cancer cell lines including HCC38 (Cat #CRL2314™), MDA-MB-231 (Cat #HTB-26™), A549/ATCC (Cat #CL-185™), National Cancer Institute (NCI)-H460 (Cat #HTB177™), NCI-H1437 (Cat #CRL-5872™), NCI-H1975 (Cat #CRL-5908™), DU145 (Cat #HTB-81™), LNCaP (Cat #CRL-1740™), PC3 (Cat #CRL-1435™), PANC1 (Cat #CRL-1469™), SKOV3 (Cat #HTB-75™), and HL60 (Cat #CCL-240™), which were free of mycoplasma, were purchased from ATCC. HMESO1 (CLS Cell Lines Service GmbH, Cat #BHC11100791), PPMMill, and TOV21G cells (ATTC Cat #CRL-11730), obtained from Dr. Brian Cunniff, were verified to be Mycoplasma negative using the LookOutR Mycoplasma PCR Detection Kit (Sigma-Aldrich, Cat #MP0035) and to match previously annotated DNA fingerprints by the Vermont Integrative Genomics Resource DNA Analysis Facility.\nTo assess the effects of 4SP65 on the growth of normal epithelium, experiments were performed using NHMEC strains from three donors (Keshava et al., “Induction of CYP1A1 and CYP1B1 and Formation of Carcinogen-DNA Adducts in Normal Human Mammary Epithelial Cells Treated with Benzo[a]pyrene,” Cancer Lett. 221 (2): 213-24 (2005), which is hereby incorporated by reference in its entirety). Strain-1 NHMECs were plated at 5,000 cells/well in 24-well dishes and allowed to reach 50% confluence before treatment with 0-300 μM 4SP65 for 48 hours. Cell viability was determined using a hemocytometer and trypan blue exclusion assay. Two other NHMEC strains, exposed to 0-150 μM 4SP65 or 0-500 μM 1LP65, were handled in the same fashion except that viability of cells in 96-well plates was determined using CyQUANT dye."}, "HEK-293t cells": {"system": "HEK-293t cells", "protocol": "as §1"}, "LP9 cells": {"system": "LP9 cells", "protocol": "as §1"}, "[4]": {"conditions": "NCI-H460, each drug alone, 48 h"}, "[5]": {"conditions": "PPM-Mill, each drug alone, 48 h"}},
  "note": "Where two headings read alike, the source gives them in different places.",
  "data": [
    {"compound": "4-star PEG-S-S-WR1065 [4SP65]", "values": [
      {"measurement": "CC50", "setting": "NCI-H460 NSCLC cells", "value": "17.6 ± 0.5", "unit": "µM"},
      {"measurement": "Fold increase in efficacy at GI50", "setting": "NCI-H460 NSCLC cells; NCI-H460, drug alone vs in 4SP65-cisplatin combination", "value": 36, "unit": "fold"},
      {"measurement": "GI50", "setting": "NCI-H460 NSCLC cells; [4]", "value": "12.3 ± 1.1", "unit": "µM"},
      {"measurement": "IC50", "setting": "NCI-H460 NSCLC cells; [4]", "value": "13.3 ± 1", "unit": "µM"},
      {"measurement": "LC99", "setting": "NCI-H460 NSCLC cells; [4]", "value": "18.2 ± 0.4", "unit": "µM"},
      {"measurement": "TGI", "setting": "NCI-H460 NSCLC cells; [4]", "value": "16.9 ± 0.6", "unit": "µM"},
      {"measurement": "CC50", "setting": "Vero cells", "value": "11.6 ± 6.3", "unit": "µM"},
      {"measurement": "GI50", "setting": "Vero cells; VERO", "value": "2.9 ± 1.4", "unit": "µM"},
      {"measurement": "LC99", "setting": "Vero cells; VERO", "value": "14.0 ± 9.9", "unit": "µM"},
      {"measurement": "TGI", "setting": "Vero cells; VERO", "value": "6.4 ± 2.6", "unit": "µM"},
      {"measurement": "CC50", "setting": "[1]", "value": "2.7 ± 0.1", "unit": "µM"},
      {"measurement": "LC99, amount of each drug in combination", "setting": "[1]; TOV21G, 4SP65-cisplatin combined, 48 h", "value": 0.95, "unit": "µM"},
      {"measurement": "GI50", "setting": "[1]; TOV21G, each drug alone, 48 h", "value": "0.93 ± 0.37", "unit": "µM"},
      {"measurement": "IC50", "setting": "[1]; TOV21G, each drug alone, 48 h", "value": "1.2 ± 0.3", "unit": "µM"},
      {"measurement": "LC99", "setting": "[1]; TOV21G, each drug alone, 48 h", "value": 3.0, "unit": "µM"},
      {"measurement": "TGI", "setting": "[1]; TOV21G, each drug alone, 48 h", "value": "2.0 ± 0.4", "unit": "µM"},
      {"measurement": "CC50", "setting": "[2]", "value": "16.2 ± 3.2", "unit": "µM"},
      {"measurement": "GI50", "setting": "[2]; [5]", "value": "8.4 ± 1.5", "unit": "µM"},
      {"measurement": "IC50", "setting": "[2]; [5]", "value": "10 ± 1.9", "unit": "µM"},
      {"measurement": "LC99", "setting": "[2]; [5]", "value": "17.6 ± 3.5", "unit": "µM"},
      {"measurement": "TGI", "setting": "[2]; [5]", "value": "14.1 ± 3.3", "unit": "µM"},
      {"measurement": "average effect per unit dose (% growth÷exposure concentration)", "setting": "[3]; 9 μM", "value": 8.7},
      {"measurement": "average effect per unit dose (% growth÷exposure concentration)", "setting": "[3]; 30 μM", "value": 1.70},
      {"measurement": "average effect per unit dose (% growth÷exposure concentration)", "setting": "[3]; 90 μM", "value": 0.23},
      {"measurement": "average effect per unit dose (% growth÷exposure concentration)", "setting": "[3]; 150 μM", "value": 0.058},
      {"measurement": "growth compared to sham-exposed control cells", "setting": "[3]; Strain-1, 5 μM, 48 hours", "value": 336, "unit": "%"},
      {"measurement": "growth compared to sham-exposed control cells", "setting": "[3]; Strain-1, 15 μM, 48 hours", "value": 286, "unit": "%"},
      {"measurement": "growth as % of control cell growth", "setting": "[3]; Strain-1, 50 μM, 48 hours", "value": 68, "unit": "%"},
      {"measurement": "growth pattern", "setting": "[3]; Strain-1, 150 μM, 48 hours", "value": "re-established a predominant pattern of growth enhancement"},
      {"measurement": "IC50", "setting": "[3]; Strain-1 and Strain-2 NHMECs", "value": "could not be calculated or predicted"},
      {"measurement": "GI50", "setting": "[3]; Strain-1 and Strain-2 of NHMECs", "value": "could not be calculated or predicted"},
      {"measurement": "growth relative to control cells", "setting": "[3]; Strain-2 and Strain-3, 3 μM", "value": "162%±7%"},
      {"measurement": "growth relative to control cells", "setting": "[3]; Strain-2 and Strain-3, 9 μM", "value": "78%±12%"},
      {"measurement": "growth relative to control cells", "setting": "[3]; Strain-2 and Strain-3, 30 μM", "value": "52%±8%"},
      {"measurement": "growth relative to control cells", "setting": "[3]; Strain-2 and Strain-3, 50 μM (so in the source)", "value": "21%±4%"},
      {"measurement": "growth relative to control cells", "setting": "[3]; Strain-2 and Strain-3, 150 μM", "value": "8.7%±2%"},
      {"measurement": "IC50", "setting": "[3]; Strain-3 cells, 48 hours, read-out: IC50", "value": "76 ± 14", "unit": "µM"},
      {"measurement": "GI50", "setting": "[3]; strain 3 of NHMECs, read-out: GI50", "value": "41.4 ± 6.2", "unit": "µM"},
      {"measurement": "CC50", "setting": "HEK-293t cells", "value": 60.6, "unit": "µM"},
      {"measurement": "GI50", "setting": "HEK-293t cells; HEK-293t", "value": 15.8, "unit": "µM"},
      {"measurement": "LC99", "setting": "HEK-293t cells; HEK-293t", "value": 62.4, "unit": "µM"},
      {"measurement": "TGI", "setting": "HEK-293t cells; HEK-293t", "value": 58.8, "unit": "µM"},
      {"measurement": "CC50", "setting": "LP9 cells", "value": 19, "unit": "µM"},
      {"measurement": "GI50", "setting": "LP9 cells; LP9", "value": 9.2, "unit": "µM"},
      {"measurement": "TGI", "setting": "LP9 cells; LP9", "value": 13.5, "unit": "µM"}
    ]},
    {"compound": "COCCOCCOCCOCCOCCOCCSSCCNCCCN", "note": "[1LP65, m-PEG6-S-S-WR1065]", "values": [
      {"measurement": "GI50", "setting": "Vero cells; Chlorocebus sabaeus, Vero", "value": "46.6 ± 2.6", "unit": "µM"},
      {"measurement": "LC99", "setting": "Vero cells; VERO", "value": "183.4 ± 6.2", "unit": "µM"},
      {"measurement": "TGI", "setting": "Vero cells; VERO", "value": "82.8 ± 2.9", "unit": "µM"},
      {"measurement": "cytotoxicity in NHMECs", "setting": "[3]; 500 μM", "value": "not cytotoxic"},
      {"measurement": "IC50", "setting": "[3]; Homo sapiens, Epithelial cell, 48 h, Strain-2 cells, 48 hours, read-out: IC50", "value": "> 500", "unit": "µM"},
      {"measurement": "IC50", "setting": "[3]; Homo sapiens, Epithelial cell, 48 h, Strain-3 cells, 48 hours, read-out: IC50", "value": 210, "unit": "µM"},
      {"measurement": "IC50", "setting": "[3]; Homo sapiens, Epithelial cell, Strain-2 and Strain-3, read-out: IC50, averaging over strains", "value": "> 355", "unit": "µM"},
      {"measurement": "average effect per unit dose (% growth÷exposure concentration)", "setting": "[3]; 90 μM", "value": 2.9},
      {"measurement": "average effect per unit dose (% growth÷exposure concentration)", "setting": "[3]; 150 μM", "value": 0.31},
      {"measurement": "average effect per unit dose", "setting": "[3]; 300 μM", "value": 0.06},
      {"measurement": "average effect per unit dose", "setting": "[3]; 500 μM", "value": 0.03},
      {"measurement": "cell growth as % of control cell values", "setting": "[3]; Strain-2, 48 hours", "value": 19.5, "unit": "%"},
      {"measurement": "cell growth as % of control cell values", "setting": "[3]; Strain-3, 48 hours", "value": 12.5, "unit": "%"}
    ]}
  ]
}
